± gives the expanded uncertainty stated by the source.
Legend:
[1] = 298.2 K; 101.33 kPa; Liquid; Vibrating tube method
[2] = refractive index (Na D-line) (dimensionless); conditions: 298.2 K; 101.33 kPa; Liquid; Standard Abbe refractometry
[3] = refractive index (Na D-line) (dimensionless); wn = mass fraction of the nth substance listed; conditions: 81.5 kPa, Liquid, Standard Abbe refractometry

mass density [1] [kg/m3]	refractive index [2]	refractive index ([3]; 293.2 K, w2 = 0.0006)	refractive index ([3]; 293.2 K, w2 = 0.9998)	refractive index ([3]; 298.2 K, w2 = 0.0009)	refractive index ([3]; 298.2 K, w2 = 0.9996)	refractive index ([3]; 308.2 K, w2 = 0.0011)	refractive index ([3]; 308.2 K, w2 = 0.9994)	SMILES
857.54 ± 1.7	1.49005 ± 0.0014							CC(C)c1ccccc1 [isopropylbenzene]
		1.4915 ± 0.0014	1.3335 ± 0.0014	1.49001 ± 0.0014	1.333 ± 0.0014	1.4859 ± 0.0014	1.33195 ± 0.0014	CC(C)c1ccccc1 [isopropylbenzene] + O
	1.3325 ± 0.0014							O [water]

From the NIST ThermoML archive (doi:10.1021/acs.jced.7b00393)
